“And” between values parts separate entries of the source, which are not always exact repeats. Equal entries are not always repeated. No end group written: not given here.
Key:
[1] = test system: proteolytic enzymes of Candida albicans; assay: Sensitivity to proteolytic enzymes of Candida albicans (cell lysate, SDS-PAGE); format: in vitro ADME; conditions: C. albicans lysate 10^9 cells/mL, up to 72 h, SDS-PAGE
Protocol: For study of Lc-def sensitivity to the clinical isolate of C. albicans, lysates of yeast cells in different concentration and pH were used basically as previously described for rhesus macaque θ-defensin 1 [22]. Cells were inoculated onto modified YPD medium and grown at 37 ℃ for 48 h before reaching the stationary phase of growth. Cells were harvested by centrifugation, washed two times in sterile phosphate buffered saline (PBS), pH 7.2, or sterile 40 mM sodium acetate, pH 4.0, and resuspended in the corresponding buffer to final concentrations of 1 × 10^9 cells/mL or 1 × 10^3 cells/mL. Two freeze-thaw cycles in liquid nitrogen were used for cell disruption, and supernatants were collected following centrifugation. Supernatants (12.5 μL) were mixed with water solutions (37.5 μL) of Lc-def, α-casein, Psd1, or LL-37 in concentration of 0.67 mg/mL and incubated at 37 ℃ for 72 or 24 h in the case of high or low cell concentration, respectively. To study the possible influence of Lc-def and Psd1 on the degradation process, supernatants (12.5 μL) were mixed with both α-casein or LL-37 in concentration of 1 mg/mL (25 μL) and Lc-def or Psd1 in concentration of 2 mg/mL (12.5 μL). As negative controls, α-casein and peptides were mixed with buffers as well as supernatants were mixed with water without the proteins. The samples were mixed with sample buffer without β-mercaptoethanol (BME), heated at 100 ℃ for 2 min, and analyzed by sodium dodecyl sulfate polyacrylamide gel electrophoresis (SDS-PAGE). Some independent experiments were performed in each case.

[2] = test system: phytopathogenic filamentous fungi including Aspergillus niger; conditions: some, but not all, tested fungi including Aspergillus niger; cited from earlier work
[3] = test system: clinical isolate of C. krusei (225/2); assay: Antifungal microdilution assay, C. krusei; format: cell-based, Candida krusei; conditions: 24 h; for inhibition of the growth: C. krusei
Protocol: The clinical isolates of Candida albicans (v47a3), C. krusei (225/2) and C. glabrata (252/2) were collected from patients with human immunodeficiency virus (HIV) infection and provided by G.N. Gabrichevsky Research Institute for Epidemiology and Microbiology (Moscow, Russia). Strains stocks were kept at −70 ℃ in 10% nonfat milk with 10% glycerol.
Antifungal susceptibility tests were performed by the microdilution method using 96-well microplates. Yeast cells in stock were inoculated onto modified YPD (yeast extract 5 g/L, peptone 10 g/L, glucose 10 g/L) agar plates, and incubated for 24 h at 37 ℃. After replating, cells were cultured in modified YPD broth at 37 ℃ to optical density 1.0 at 540 nm. Further, yeast cells in modified YPD broth at concentration of 5 × 10^4 cells/mL were mixed with equal volumes of serial two-fold dilutions of the peptide in water which started at the highest peptide concentration of 200 µM. Final peptide concentrations in the wells were 100, 50, 25, 12.5, 6.25, 3.125, and 1.56 μM. Controls without defensin were also tested. Plates were incubated at 30 ℃ during 24 h. Yeast growth was estimated using inverted microscope as well as by measuring the optical density at 540 nm. Percentage of growth inhibition was defined as: growth inhibition (%) = ((Acontrol − Asample)/Acontrol) × 100%. All of the experiments were performed twice in triplicate. The t-test was performed to study the statistical difference (p-value) between the means of controls and samples with different peptide concentrations. The experiment with lentil Lens culinaris lipid transfer protein Lc-LTP2 was carried out for comparison.

## Lc-def: defensin from lentil Lens culinaris seeds (UniProt:B3F051), recombinant, overexpressed in Escherichia coli (KTCENLSDSFKGPCIPDGNCNKHCKEKEHLLSGRCRDDFRCWCTRNC; disulfide (positions not given here); ends not checked; also: disulfide bonds present, pairing not given here; UniProt B3F051 28-74, looked up)
[1]; 40 mM sodium acetate pH 4.0, 37 °C
  stability to proteolysis by yeast: stable
[1]; PBS pH 7.2, 37 °C, densitometry, immunoblotting
  stability to proteolysis by yeast: stable
[2]
  activity against phytopathogenic filamentous fungi: active
[3]; C. krusei clinical isolate, microdilution, modified YPD, 30 °C, OD540, twice in triplicate, read-out: concentration causing 50% growth inhibition
  IC50: 25 to 50 µM and 25 µM
[3]; 50 μM peptide
  inhibition of the growth: ~90%
[3]; 100 μM peptide
  inhibition of the growth: < 100%
